US20130224164A1, “Environmental Clostridial Bacteriotherapy and Related Formulations and Methods of Manufacture and Use” (VIROPHARMA INCORPORATED, priority 2010, published 2013)

System: healthy subjects ≧60 years of age
Test: Adverse events during oral vancomycin pre-treatment period of the Phase 1 study
Assay type: in vivo, human
Method: VP20621 (10^4, 10^6, or 10^8 spores) or placebo were administered as a single dose to subjects age 18-45 (Group 1) or ≧60 years of age (Group 2). In Group 3, an oral suspension of 10^8 spores or placebo was administered twice daily for five days to patients≧60 years in age. In Group 4, subjects≧60 years of age received 5 days of oral vancomycin followed by 14 days of once daily VP20621 (10^4, 10^6, or 10^8 spores) or placebo. All subjects were followed through day 28. C. difficile stool cultures were performed at various time points. C. difficile isolates were tested for the production of toxin by enzyme immunoassay.
Purified VP 20621 (spores of a non-toxigenic strain of C. difficile) were produced in a liquid culture medium free of animal-derived components. VP 20621 was administered as an oral liquid suspension. The potency of the drug is based on the viable count of the spores.
Forty-three (43) subjects were pre treated with vancomycin to ensure that a sufficient number of subjects would be available for randomization to achieve the planned target sample size of 36. Twelve (28%) of the 43 subjects had adverse events during the vancomycin pre treatment period (Table 1).

[1] = vancomycin pre-treatment, N = 43

CN[C@H](CC(C)C)C(=O)N[C@H]1C(=O)N[C@@H](CC(N)=O)C(=O)N[C@H]2C(=O)N[C@H]3C(=O)N[C@H](C(=O)N[C@H](C(=O)O)c4cc(O)cc(O)c4-c4cc3ccc4O)[C@H](O)c3ccc(c(Cl)c3)Oc3cc2cc(c3O[C@@H]2O[C@H](CO)[C@@H](O)[C@H](O)[C@H]2O[C@H]2C[C@](C)(N)[C@H](O)[C@H](C)O2)Oc2ccc(cc2Cl)[C@H]1O [Vancomycin, vancomycin]
Subjects with a gastrointestinal adverse effect (Group 4, during pre-treatment with vancomycin): 16%
Subjects with mild diarrhea or loose/watery stools (Group 4, during pre-treatment with vancomycin (3/43)): 7%
Subjects with adverse events (vancomycin pre treatment period, twelve of 43 subjects): 28%
Gastrointestinal AEs: Abdominal distention [1]: 1 (2%)
Gastrointestinal AEs: Abdominal pain [1]: 2 (5%)
Gastrointestinal AEs: Flatulence [1]: 1 (2%)
Gastrointestinal AEs: Gingival bleeding [1]: 1 (2%)
Gastrointestinal AEs: Oral paresthesia [1]: 1 (2%)
Gastrointestinal AEs: Toothache [1]: 1 (2%)
Gastrointestinal AEs: Vomiting [1]: 1 (2%)
Other AEs: Dizziness [1]: 2 (5%)
Other AEs: Dry skin [1]: 1 (2%)
Other AEs: Malaise [1]: 1 (2%)
Other AEs: Pruritis [1]: 1 (2%)
Other AEs: Rash [1]: 1 (2%)
Gastrointestinal AEs: Diarrhea (vancomycin pre-treatment, oral 125 mg QID Days −5 to −1, N = 43): 3 (7%)
